Experimental data reported in patent US20240100183A1, “COMPOSITIONS COMPRISING MOLECULES FOR CYSTIC FIBROSIS TREATMENT” (UNiversity of Iowa Research Foundation, priority 2020, published 2024).
Converted amounts (≈) assume the structure as drawn. “And” between values parts separate entries of the source, which are not always exact repeats. Equal values may be shown once. Read-outs that look alike come from different tables or passages of the source.

How the values were obtained:
[1] = oral 150 mg twice daily; cited from earlier work
[2] = Phase solubility of ivacaftor in cyclodextrin solutions; format: physicochemical; conditions: for solubility at 3 days: aqueous with cosolvent or surfactant or cyclodextrin, thermodynamic from solid
Procedure: Excess amounts of powdered ivacaftor were suspended in different concentrations of different types of CD's (up to […] in the case of βCD, and up to […] in the case of αCD, γCD, and HPβCD). The suspensions were shaken at 3000 rpm at room temperature for 3 days. Then, samples were collected and filtered, and the concentration of ivacaftor was determined using HPLC, as described below. An Agilent HPLC workstation series 1100 (Agilent Technologies, Santa Clara, CA) was used for the analysis. The column used was Waters Symmetry C18 5 μm (4.6×150 mm), and the mobile phase consisted of 6:4 acetonitrile: water with 0.1% v/v trifluoroacetic acid (TFA) at a flow rate of 1 ml/min (at 25±2° C.). Detection was carried out using an Agilent Diode array detector (DAD) at 309 nm.

[3] = cited from earlier work; for aqueous (water) solubility: room temperature
[4] = Ivacaftor solubility in the release medium; format: physicochemical; conditions: release medium (polysorbate 80 in DPBS), aqueous with cosolvent or surfactant or cyclodextrin; 0.4% v/v polysorbate 80 in 1×DPBS, 37° C.

CC(C)(C)c1cc(C(C)(C)C)c(NC(=O)c2c[nH]c3ccccc3c2=O)cc1O [Ivacaftor, N-(2,4-Di-tert-butyl-5-hydroxyphenyl)-4-oxo-1,4-dihydroquinoline-3-carboxamide]
half-life [1]: 9 to 12 h | solubility in βCD relative to aqueous solubility ([2]; 10 μM βCD): about 24 times | solubility in γCD relative to aqueous solubility ([2]; 25 μM γCD): about 10 times | solubility in HPβCD relative to aqueous solubility ([2]; 50 μM HPβCD): about 1000 times | solubility in HPβCD relative to maximum βCD concentration ([2]; 50 μM HPβCD vs 10 μM βCD): about 40 times | solubility in HPβCD relative to αCD and γCD ([2]; 50 μM of each CD): 100-150 times | solubility at 3 days ([2]; HPβCD solution, 50 μM HPβCD, room temperature, 3 days shaking, read-out: ivacaftor solubility in HPβCD solution): 50 µg/mL (≈ 127 µM) | solubility in βCD relative to αCD and γCD ([2]; same concentration (10 μM)): 5-6 times and 5-8 times | solubility at 3 days ([2]; βCD solution, 10 μM βCD, read-out: ivacaftor solubility in βCD solution): 1.2 µg/mL (≈ 3.06 µM) | solubility at 3 days ([2]; γCD solution, 25 μM γCD, read-out: ivacaftor solubility in γCD solution): 0.5 µg/mL (≈ 1.27 µM) | log P [3]: 3.13 | log P ([3]; listed as IVA): 3.3 | aqueous (water) solubility [3]: about 0.05 μg/ml | aqueous (water) solubility ([3]; listed as IVA): < 0.05 µg/mL | solubility [4]: 272 µg/mL (≈ 692 µM)
